Data as given in patent publication US20230002346A1, “NEW COMPOUNDS AND METHODS” (BenevolentAl Bio Limited, priority 2019, published 2023).
Converted amounts (≈) assume the structure as drawn.

What was measured:
[1] = system: Salmonella typhimurium, strains TA98 and TA100; assay: Ames assay (Bacterial Reverse Mutation Test); assay type: cell-based; details: TA98 and TA100, presence and absence of S-9 mix, up to 5000 μg/plate
Method: Examples 50, 52 and 54 were tested, in vitro, for their ability to induce mutations in 2 histidine dependent auxotrophic mutants of Salmonella typhimurium, strains TA98 and TA100. The mutation screen was conducted using the plate incorporation method and was performed in both the presence and absence of S-9 mix (a liver post-mitochondrial fraction derived from the livers of Aroclor 1254 treated rats). The bacteria were exposed to the test items dissolved in DMSO, which was also the negative Control. The test items were tested up to the regulatory maximum dose level. The dose levels used were 5, 15, 50, 150, 500, 1500 or 5000 μg/plate, unless the highest treatment level of the test items was limited by solubility, or toxicity against the background bacterial lawn. Dose levels were expressed in terms of the free base.
There were no increases of 2-fold or greater in revertant numbers compared with negative Control values in either strain at any dose level in the presence or absence of S-9 mix, so Examples 50, 52 and 54 were not mutagenic in the Bacterial Reverse Mutation (i.e. Ames) Test under the conditions of this screen.

[2] = system: 87 targets across GPCRs, ion channels, and enzymes; assay: Eurofins SafetyScreen panel; details: top concentration of 10 μM
Description: Example 50 was screened against the Eurofins SafetyScreen™ panel of 87 targets across GPCRs, ion channels, and enzymes.

[3] = target: T1, hERG channel (Homo sapiens, UniProt Q12809); assay: hERG assay (QPatch automated patch clamp, CHO cells); assay type: cell-based; details: CHO cells expressing hERG, whole-cell patch clamp, 0.003 μM to 10 μM
T1 construct: expressed in transfected cells
Description: The human ether-a-go-go related gene (hERG) potassium channel (Kv11.1) contributes to human cardiac action potential repolarisation. Inhibition of hERG channels can prolong the human cardiac action potential, resulting in QTc prolongation and potentially lethal arrhythmias (e.g. Torsade de Pointes).
Test samples were screened against the hERG channel on a QPatch 48 gigaseal automated patch clamp platform, using a Chinese Hamster Ovary (CHO) cell line stably expressing the human ether-á-go-go related gene, which encodes the hERG channel. All recordings were made in the conventional whole-cell configuration and performed at RT ([…]) using standard single hole chips (Rchip 1.5-4M0). Series resistance (4-15Mc) was compensated by >80%. Currents were elicited from a holding potential of −90 mV using the industry standard “^+40/−40” voltage protocol, which was applied at a stimulus frequency of 0.1 Hz. On achieving the whole-cell configuration, vehicle (0.1% DMSO v/v in external recording solution) was applied to each cell in two bolus additions with a 2 min recording period between each addition. Following the vehicle period, eight increasing concentrations of test sample were applied from 0.003 μM to 10 μM as a single bolus addition per test concentration, and the effects on hERG tail current amplitude measured during the 2 min recording period. Each eight-point concentration-response curve was constructed using cumulative single sample additions of each concentration to the same cell. The positive control used in this study was verapamil hydrochloride (Tocris, Cat #0654, Batch #5A/61673) and prepared to a stock concentration of 10 mM in 100% DMSO and kept as frozen aliquots.
Data analysis: All cells passing the QC parameters (i.e. >200 pA outward current, membrane resistance and rundown) are selected as ‘passed QC’ using the QPatch software, which then calculates the mean peak current for the last three sweeps at the end of each concentration application period from the cursor positions defined. Percent inhibition is calculated for each test concentration application period as the reduction in mean cursor value (peak current or charge) relative to the cursor value measured at the end of the control (i.e. vehicle) period. The percent inhibition values from each cell are used to construct concentration-response curves employing a four parametric logistic fit with 0 and 100% inhibition levels fixed at very low and very high concentrations, respectively, and a free Hill slope factor. The IC50 (50% inhibitory concentration) and Hill coefficient are then determined, but only data from cells with Hill slopes within 0.5>nH<2.0 are included. The IC50 data reported below represents the mean (and S.D.) of at least three separate cells (N≥3). […] Compounds of the invention show reduced hERG inhibitory activity compared to the reference examples.

[4] = Brain to plasma (B:P) ratio in rat; assay type: in vivo, Sprague Dawley Rats; details: male, Sprague Dawley, iv, i.v. 1.5 mg/kg, 3.3% NMP in 30% HPBC in water, timepoints averaged 0.5-1 h
[5] = Kinetic aqueous solubility assay; assay type: physicochemical; details: aqueous buffer, kinetic from dmso stock, 0.05M potassium phosphate buffer pH 7.4, 250 μM spike, RT
Method: Using a 10 mM stock solution of test compound in 100% DMSO, test compounds were spiked into 0.05M potassium phosphate buffer (pH 7.4) at a final concentration of 250 μM. Samples in buffer (n=2 aqueous samples, in 96-well plates) were allowed to equilibrate at RT on an orbital shaker for 30 min (300 rpm) to induce precipitation of test compounds. The appearance of each sample was determined by visual examination and noted (clear, cloudy, precipitate observed etc.). […] The concentration of compound in phosphate buffer filtrate was determined by comparing the UV absorbance peak area of each replicate against that of the calibration standards. […] Compounds of the invention have much improved solubility compared to the reference examples.

[6] = Brain to plasma (B:P) ratio in rat; assay type: in vivo, Sprague Dawley Rats; details: male, Sprague Dawley, po, p.o. 3.0 mg/kg
Method: Male Sprague Dawley Rats 300-350 g (Charles River, UK) were group housed, n=3, under a 12 h light/dark cycle with food and water available ad libitum. At 17:00 on the day prior to dosing all food was removed. On the day of dosing animals were weighed, tail marked and dosed via oral gavage with compound at 3 mg/kg in a volume of 5 mL/kg. Animals were culled at 30 min, 1 h and 4 h post dose via intra-peritoneal administration of pentobarbital. Post mortem blood was withdrawn via cardiac puncture, and briefly stored in K2 EDTA blood tubes on ice before being spun at 14,000 g for 4 min at 4° C. Plasma was withdrawn into a 96 well plate, placed on dry ice and stored at −80° C. Brains were quickly dissected and placed on dry ice before storage at −80° C. Bioanalysis of plasma and brain samples is performed as detailed below. Methods were prepared with guidance from industry standard documents.^i,ii […] Calibration lines are prepared in control male Sprague-Dawley Rat plasma at known concentrations in the range of 1-10000 ng/mL by spiking 2.5 μL of calibration spiking solution into 25 μL control plasma. Experimental samples are thawed to RT and 25 μL aliquots are extracted alongside the calibration lines using protein precipitation (agitation for at least 5 min at RT with 400 μL of MeCN containing 25 ng/mL tolbutamide as an internal standard). Protein precipitates are separated from the extracted test compound by centrifugation at 4000 rpm for 5 min, 4° C. […] Samples are analysed by UPLC-MS/MS on either an API6500 QTrap or Waters 30 TQS mass spectrometer using previously optimised analytical MRM (multiple reaction monitoring) methods, specific to the test compound. The concentration of test compound in isolated samples is determined following analysis of the samples against the two replicates of the calibration line, injected before and after the sample set with an appropriate regression and weighting used. Only samples within 20% of the expected test concentration are included in the calibration line and any samples that fall outside of the limits of the calibration line will be deemed to be less than or above the limit of quantification (LLoQ/ALoQ). […] Calibration lines are prepared in control male Sprague-Dawley Rat brain homogenate at known concentrations in the range of 3-30000 ng/g by spiking 2.5 μL of calibration spiking solution into 25 μL control homogenate. To prepare control and experimental brain homogenates, brains are thawed, weighed and a volume of diluent added (water) in the ratio of 2 mL per gram of brain. Homogenisation of brains is performed by bead-beater homogenisation using Precellys Evolution and CK14 7 mL small ceramic bead homogenisation tubes. Aliquots of 25 μL experimental sample are extracted alongside the calibration lines using protein precipitation (agitation for at least 5 min at RT with 400 μL of MeCN containing 25 ng/mL tolbutamide as an internal standard). Protein precipitates are separated from the extracted test compound by centrifugation at 4000 rpm for 5 min, 4° C. […] Samples are analysed by UPLC-MS/MS on either an API6500 QTrap or Waters TQS mass spectrometer using previously optimised analytical MRM (multiple reaction monitoring) methods, specific to the test compound. The concentration of test compound in isolated samples is determined following analysis of the samples against the two replicates of the calibration line, injected before and after the sample set with an appropriate regression and weighting used. Only samples within 20% of the expected test concentration are included in the calibration line and any samples that fall outside of the limits of the calibration line will be deemed to be less than or above the limit of quantification (LLoQ/ALoQ). Total brain to plasma (B:P) ratios were calculated by dividing the concentration in the brain by the concentration in plasma for each timepoint. The mean brain to plasma ratio is calculated by averaging these brain to plasma ratios across certain timepoints. […]

[7] = target: T2, Ba/F3 cells expressing BCR-ABL (Homo sapiens, UniProt P00519); assay: Ba/F3 CellTiter-Glo Assay; assay type: cell-based; details: 48 h
T2 construct: BCR (fusion partner); host or cells: Ba/F3 (IL-3 dependent murine pro-B cells); the other entry of the earlier key: BCR (P11274, Breakpoint cluster region protein)
Method: The CellTiter-Glo luminescent cell viability assay is a homogeneous method of determining the number of viable cells in culture based on quantification of the ATP present. Briefly, IL-3 dependent Ba/F3 cells are modified to express BCR-ABL. Activity of the transformed kinase overrides IL3 dependency for cellular proliferation and survival. […] Test compounds were dispensed into 384 well plates using the Tecan D300e at a top final assay concentration of 10 μM with dosing normalised to 0.1% DMSO in 50 μL volume. […] Following a 60 min incubation at RT luminescence was read on the Pherastar FS reader.

[8] = 30% HPBC in water, timepoints averaged 0.5-4 h

T1 sequence (Q12809 whole entry): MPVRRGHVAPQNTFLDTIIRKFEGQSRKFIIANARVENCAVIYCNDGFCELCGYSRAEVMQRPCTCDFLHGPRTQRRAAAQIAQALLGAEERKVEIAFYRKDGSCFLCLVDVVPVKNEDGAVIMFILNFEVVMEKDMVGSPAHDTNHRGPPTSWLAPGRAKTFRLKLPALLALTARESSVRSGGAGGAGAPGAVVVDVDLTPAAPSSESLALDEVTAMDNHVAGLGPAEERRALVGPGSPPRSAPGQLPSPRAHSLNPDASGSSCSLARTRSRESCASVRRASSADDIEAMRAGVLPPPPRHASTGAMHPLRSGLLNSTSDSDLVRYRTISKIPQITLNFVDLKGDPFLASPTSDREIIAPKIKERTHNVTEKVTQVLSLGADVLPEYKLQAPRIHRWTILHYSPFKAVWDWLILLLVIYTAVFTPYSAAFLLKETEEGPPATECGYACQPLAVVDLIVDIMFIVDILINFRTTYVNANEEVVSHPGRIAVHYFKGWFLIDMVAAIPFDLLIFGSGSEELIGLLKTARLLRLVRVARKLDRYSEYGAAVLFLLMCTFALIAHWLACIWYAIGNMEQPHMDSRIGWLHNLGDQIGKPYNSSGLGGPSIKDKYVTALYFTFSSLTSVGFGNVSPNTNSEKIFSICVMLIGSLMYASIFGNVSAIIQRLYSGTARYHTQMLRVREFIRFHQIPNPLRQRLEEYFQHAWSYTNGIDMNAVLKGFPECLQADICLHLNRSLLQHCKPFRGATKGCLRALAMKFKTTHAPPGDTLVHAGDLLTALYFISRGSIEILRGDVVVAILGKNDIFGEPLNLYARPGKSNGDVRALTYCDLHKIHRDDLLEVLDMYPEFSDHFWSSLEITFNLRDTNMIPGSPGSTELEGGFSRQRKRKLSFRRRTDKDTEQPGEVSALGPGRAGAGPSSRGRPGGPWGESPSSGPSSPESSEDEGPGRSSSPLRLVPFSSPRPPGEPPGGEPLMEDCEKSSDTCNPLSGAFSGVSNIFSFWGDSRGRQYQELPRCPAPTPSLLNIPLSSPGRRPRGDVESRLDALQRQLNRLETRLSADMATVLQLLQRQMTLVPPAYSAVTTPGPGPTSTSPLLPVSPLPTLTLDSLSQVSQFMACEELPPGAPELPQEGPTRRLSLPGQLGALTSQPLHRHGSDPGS
T2 sequence (P00519 28-1130 limits assumed): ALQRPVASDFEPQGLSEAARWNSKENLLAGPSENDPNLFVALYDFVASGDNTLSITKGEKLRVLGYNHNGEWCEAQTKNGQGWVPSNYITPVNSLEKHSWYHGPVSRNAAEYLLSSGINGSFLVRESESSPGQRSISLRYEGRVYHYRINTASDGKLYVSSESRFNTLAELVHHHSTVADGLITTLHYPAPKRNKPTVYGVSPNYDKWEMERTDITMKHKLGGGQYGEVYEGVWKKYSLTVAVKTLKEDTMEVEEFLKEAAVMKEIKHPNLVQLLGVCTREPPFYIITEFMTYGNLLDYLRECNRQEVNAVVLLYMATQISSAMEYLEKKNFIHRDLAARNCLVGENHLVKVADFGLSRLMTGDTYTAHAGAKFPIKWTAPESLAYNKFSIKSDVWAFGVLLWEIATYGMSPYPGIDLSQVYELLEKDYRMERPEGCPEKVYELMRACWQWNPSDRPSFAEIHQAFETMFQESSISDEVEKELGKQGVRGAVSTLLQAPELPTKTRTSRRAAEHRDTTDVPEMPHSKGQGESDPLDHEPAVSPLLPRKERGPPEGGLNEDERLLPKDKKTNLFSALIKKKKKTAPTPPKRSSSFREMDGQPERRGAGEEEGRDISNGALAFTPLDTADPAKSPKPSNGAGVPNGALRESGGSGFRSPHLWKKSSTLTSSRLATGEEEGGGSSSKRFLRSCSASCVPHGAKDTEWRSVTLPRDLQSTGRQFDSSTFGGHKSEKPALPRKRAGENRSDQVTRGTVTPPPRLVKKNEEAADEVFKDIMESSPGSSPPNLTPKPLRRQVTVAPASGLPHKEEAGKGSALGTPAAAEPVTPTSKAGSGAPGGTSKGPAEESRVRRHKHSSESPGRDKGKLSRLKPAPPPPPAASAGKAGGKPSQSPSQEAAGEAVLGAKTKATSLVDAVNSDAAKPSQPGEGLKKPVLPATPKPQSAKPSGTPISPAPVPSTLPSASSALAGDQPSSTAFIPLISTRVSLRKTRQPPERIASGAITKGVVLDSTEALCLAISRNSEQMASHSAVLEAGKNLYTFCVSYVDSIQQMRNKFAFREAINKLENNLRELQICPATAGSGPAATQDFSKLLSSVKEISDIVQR

solubility at 30 min [5] [µM] | Compound | IC50 [3] [µM] | other results
– | O=C(Nc1ccc(OC(F)(F)F)cc1)c1ccc(=O)n(-c2cncnc2)c1 [Example 50, 6-Oxo-1-(pyrimidin-5-yl)-N-[4-(trifluoromethoxy)phenyl]-1.6-dihydropyridine-3-carboxamide] | > 10 | mutagenicity in the Bacterial Reverse Mutation (Ames) Test [1]: not mutagenic; number of 87 targets inhibited >50% [2]: 2; maximum inhibition ([2]; 87 targets): 65%
190 (≈ 74.6 µg/mL) | O=C(Nc1ccc(OC(F)(F)Cl)cc1)c1ccc(=O)n(-c2cncnc2)c1 [Example 51, N-[4-(Chlorodifluoromethoxy)phenyl]-6-oxo-1-(pyrimidin-5-yl)-1,6-dihydropyridine-3-carboxamide] | > 10 | Kp [4]: 0.67
170 (≈ 66.6 µg/mL) | O=C(Nc1ccc(OC(F)(F)Cl)cc1)c1ccc(=O)n(-c2cccnc2)c1 [Example 53, N-[4-[Chloro(difluoro)methoxy]phenyl]-6-oxo-1-(3-pyridyl)pyridine-3-carboxamide] | > 10 | Kp ([6]; 5% NMP in 30% HPBC in water, timepoints averaged 0.5-1 h): 0.82
160 (≈ 67.5 µg/mL) | COc1cncc(-n2cc(C(=O)Nc3ccc(OC(F)(F)Cl)cc3)ccc2=O)c1 [Example 61, N-[4-[Chloro(difluoro)methoxy]phenyl]-1-(5-methoxy-3-pyridyl)-6-oxo-pyridine-3-carboxamide] | > 10 | Kp [6, 8]: 0.45
120 (≈ 51.1 µg/mL) | O=C(Nc1ccc(OC(F)(F)Cl)cc1)c1ccc(=O)n(-c2cncc(Cl)c2)c1 [Example 63, N-[4-[Chloro(difluoro)methoxy]phenyl]-1-(5-chloro-3-pyridyl)-6-oxo-pyridine-3-carboxamide] | > 10 | Kp [6, 8]: 0.64
150 (≈ 61.2 µg/mL) | O=C(Nc1ccc(OC(F)(F)Cl)cc1)c1ccc(=O)n(-c2ccc[n+]([O-])c2)c1 [Example 78, 5-{[4-(Chlorodifluoromethoxy)phenyl]carbamoyl}-2-oxo-2H-[1.3′-bipyridin]-1′-ium-1′-olate] | – | IC50 [7]: 0.151 to 1 µM
– | Cn1cc(-n2cc(C(=O)Nc3ccc(OC(F)(F)Cl)cc3)cc(C#N)c2=O)cn1 [Example 79, N-[4-(Chlorodifluoromethoxy)phenyl]-5-cyano-1-(1-methyl-1H-pyrazol-4-yl)-6-oxo-1.6-dihydropyridine-3-carboxamide] | – | IC50 [7]: 0.151 to 1 µM

Compound | solubility at 30 min [5] [µM] | IC50 [3] [µM] | other results
Cn1cc(-n2cc(C(=O)Nc3ccc(OC(F)(F)Cl)cc3)ccc2=O)cn1 [Example 52, N-[4-[Chloro(difluoro)methoxy]phenyl]-1-(1-methylpyrazol-4-yl)-6-oxo-pyridine-3-carboxamide] | 160 (≈ 63.2 µg/mL) | > 10 | mutagenicity in the Bacterial Reverse Mutation (Ames) Test [1]: not mutagenic
